{"source": "paper PMC3454376", "about": "“Salidroside Improves Behavioral and Histological Outcomes and Reduces Apoptosis via PI3K/Akt Signaling after Experimental Traumatic Brain Injury” (PLoS ONE, 2012)", "assay_in_all_cases": "Western blot, injured cortex", "format_in_all_cases": "in vivo, mice", "key": {"[1]": {"system": "p-Akt Ser473", "conditions": "for p-Akt Ser473 level, % of the vehicle level: 20 mg/kg ip 10 min after CCI", "protocol": "(§1) Mice were anesthetized and positioned in a stereotaxic frame. LY294002 (200 nM in 0.5 µL of saline) or equal amount of physiological saline was intracerebroventricularly (icv) injected at 30 min before CCI as previously described. A 1 mm cranial burr hole was drilled into the skull. A 30-gauge needle on a Hamilton syringe was implanted into the lateral ventricle using stereotactic coordinates: 1.5 mm posterior to bregma and 1.0 mm right lateral to the midline, 2 mm in depth. LY294002 or saline was infused into the brain at a rate of 0.05 µL/min over 10 min with an infusion pump (KDS 310, KD Scientific Inc., Holliston, MA, USA), and the needle was left in place for an additional 20 min to prevent reflux. After the needle was removed, CCI procedure was conducted immediately. Sham-operated mice were infused icv with saline, but were not subjected to CCI.\n(§2) Three sets of experiments were performed. The first set was to investigate the protective effects of salidroside. All animals were randomized into 1 of 3 groups (sham injury, CCI + vehicle, CCI + SALD 20). Surgery/injury, behavioral testing, and tissue analyses were performed by different individuals. Behavioral testing and tissue analyses were performed by individuals blinded to the treatment group. Salidroside (Cayman Chemical, Ann Arbor, MI, USA) dissolved in normal saline (0.25 mL) or a corresponding volume of vehicle (saline) was administered intraperitoneally 10 min following injury. Testing after injury was completed as follows: 1) behavioral testing at days 1, 4, 7, 14, 21, and 28 (n = 8–10 mice/group); 2) cresyl violet staining at day 28 (n = 9 mice/group); 3) histology, determination of brain water content, and western blot analysis at day 1 or 3 (n = 5–6 mice/group). To determine the optimal dose of salidroside, a pilot study was performed using 2 different doses (20 and 50 mg/kg) administered 10 min after injury, and neurological deficits and tissue damage were evaluated as the main outcomes. […] The second set of experiment was to assess the effect of the inhibition of PI3K/Akt with the specific PI3K inhibitor, LY294002 (Cell Signaling Technology, Danvers, MA, USA), on salidroside effects. Animals were randomized into 4 groups. Mice received either: 1) icv pretreatment of LY294002 followed by SALD 20 after CCI (S20Y group); or 2) icv pretreatment of saline (vehicle control) followed by SALD 20 after CCI (S20V group). 3) Mice were infused icv with saline and were subjected to sham injury. 4) Mice were infused icv with LY294002 and were subjected to sham injury. Testing after injury was completed as follows: 1) cresyl violet staining at day 28 (n = 6 mice/group); 2) western blot analysis at day 1 (n = 6 mice/group). The third set of experiment was performed to examine the neuroprotective time window afforded by salidroside. Mice received intraperitoneal SALD 20 or vehicle (saline) at 3 or 6 h following CCI and were sacrificed 1 day later for FJB staining and western blot analysis (n = 6 mice/group).\n(§3) Brains of injured or sham animals were collected 1 day and 3 days post CCI or sham surgery, and a 4 mm coronal section from the injured area over the parietal cortex and ipsilateral hippocampus were collected. The protein samples were obtained from tissue homogenates in 300 µL of ice-cold reagent (T-PER reagent; Pierce Biotechnology, Rockford, IL, USA) with a complete mini protease inhibitor cocktail (Roche Molecular Biochemicals) centrifuged at 14000g for 30 min. Protein concentration was determined by Bradford reagent spectrophotometrically at A595. Equal amounts of protein samples were denatured in gel-loading buffer at 100°C for 5 min, and then loaded onto sodium dodecyl sulfate-polyacrylamide gels to be separated. Separated proteins were transferred to Immobilon-P membranes (Millipore, Billerica, MA, USA), blocked with the use of 5% milk in PBST and probed with primary antibodies. […]"}, "[2]": {"system": "p-Bad", "conditions": "20 mg/kg ip 10 min after CCI; days 1 and 3; P>0.05", "protocol": "as §1, §2, §3"}, "[3]": {"system": "p-FOXO1", "conditions": "20 mg/kg ip 10 min after CCI; days 1 and 3; P>0.05", "protocol": "as §1, §2, §3"}, "[4]": {"system": "p-Akt Thr308", "protocol": "as §1, §2, §3"}, "[5]": {"conditions": "20 mg/kg ip 10 min after injury, day 1"}}, "data": [{"smiles": "OC[C@H]1O[C@@H](OCCc2ccc(O)cc2)[C@H](O)[C@@H](O)[C@@H]1O", "note": "[SALD, salidroside]", "values": [{"measurement": "p-Akt Ser473 level, % of the vehicle level", "setting": "[1]; day 1, P<0.05", "result": 200.7, "unit": "%"}, {"measurement": "p-Akt Ser473 level, % of the vehicle level", "setting": "[1]; day 3, P>0.05", "result": 146.9, "unit": "%"}, {"measurement": "increase of p-Akt Ser473 level", "setting": "[1]; [5]", "result": 100.7, "unit": "%"}, {"measurement": "change of p-Akt Ser473 level (attenuated by)", "setting": "[1]; 20 mg/kg ip 3 h after injury, day 1", "result": 46.2, "unit": "%"}, {"measurement": "p-Bad level versus vehicle group", "setting": "[2]", "result": "no difference"}, {"measurement": "p-FOXO1 level versus vehicle group", "setting": "[3]", "result": "no difference"}, {"measurement": "p-Akt Thr308 level, % of the vehicle level", "setting": "[4]; 20 mg/kg ip 10 min after CCI, day 3, P<0.05", "result": 176.0, "unit": "%"}, {"measurement": "increase of p-Akt Thr308 level", "setting": "[4]; [5]", "result": 30.3, "unit": "%"}, {"measurement": "change of p-Akt Thr308 level (attenuated by)", "setting": "[4]; 20 mg/kg ip 3 h after injury, day 1, not significant", "result": 19.5, "unit": "%"}]}]}
